From PubChem BioAssay (NCI)
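All cell lines were grown in 96-well plates and treated with compound for 48 hours. TGI denotes the concentration required for complete inhibition of growth.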

Columns and labels:
Assay in all cases: NCI tumour cell line growth inhibition, 48 h
A498 renal = test system: A498 renal
M14 melanoma = test system: M14 melanoma
MOLT-4 leukemia = test system: MOLT-4 leukemia
OVCAR-3 ovarian = test system: OVCAR-3 ovarian
OVCAR-5 ovarian = test system: OVCAR-5 ovarian
SF-295 CNS = test system: SF-295 CNS
SK-MEL-28 melanoma = test system: SK-MEL-28 melanoma
A549 NSCLC = test system: A549 NSCLC
HCC-2998 colon = test system: HCC-2998 colon
MALME-3M melanoma = test system: MALME-3M melanoma

| SMILES | TGI (A498 renal) | TGI (M14 melanoma) | TGI (MOLT-4 leukemia) | TGI (OVCAR-3 ovarian) | TGI (OVCAR-5 ovarian) | TGI (SF-295 CNS) | TGI (SK-MEL-28 melanoma) | TGI (A549 NSCLC) | TGI (HCC-2998 colon) | TGI (MALME-3M melanoma) |
| --- | --- | --- | --- | --- | --- | --- | --- | --- | --- | --- |
| COc1cc2c(cc1OC)C(N(C)C)C(c1ccccc1)=C2Cl (configuration not stated) | 59.7 µM | 34.3 µM | 39.6 µM | 40.8 µM | > 100 µM | 49.7 µM | 36 µM |  |  |  |
| CN(C)C(CN)CC1=C(CC(CN)N(C)C)CCC1 (configuration not stated) | > 100 µM |  | > 100 µM | > 100 µM | > 100 µM | > 100 µM | > 100 µM | > 100 µM | > 100 µM | > 100 µM |
| Cc1ccc(S(=O)(=O)Oc2cc(N)c3c(n2)CCC3)cc1 | > 100 µM | > 100 µM | > 100 µM | > 100 µM | > 100 µM | > 100 µM | > 100 µM | > 100 µM | > 100 µM |  |
| CCC1=CCC23C(=O)C=CC(=O)C2(C1)C(=O)c1cccc(OC)c1C3=O (configuration not stated) |  | 30.4 µM | 17.4 µM | 27.2 µM | 31.8 µM | > 100 µM | 33.3 µM | 51.5 µM |  | 30 µM |
| CCOP(=O)(OCC)C1C(CO)OC(n2ccc(=O)[nH]c2=O)C1O (configuration not stated) | > 100 µM | > 100 µM |  | > 100 µM |  | > 100 µM | > 100 µM | > 100 µM | > 100 µM | > 100 µM |
| CC(C)(C)C1=Cc2cc3cc(C(C)(C)C)[nH]c(=O)c3cc2S(=O)(=O)N1 | > 100 µM | 29.7 µM | 84.3 µM | 59.3 µM | 92.5 µM | 94.4 µM | > 100 µM | 75.3 µM |  | 57.7 µM |
| COc1ccc(-c2cc(=O)c3cc4c(cc3[nH]2)OCO4)c(OC)c1OC |  | > 100 µM | > 100 µM | > 100 µM |  | > 100 µM | > 100 µM | > 100 µM | > 100 µM | > 100 µM |
| COc1ccc(Nc2nc3ccc(C(F)(F)F)cc3nc2C(=O)O)cc1OC | 86.6 µM |  | 43.5 µM | 40.8 µM | > 100 µM | 77.6 µM | > 100 µM |  | 43.7 µM | > 100 µM |
| C=C(Cl)/C(=C\Cl)CCC(Br)C(C)C (configuration not stated) | > 100 µM | > 100 µM | > 100 µM | > 100 µM | > 100 µM | > 100 µM | > 100 µM | > 100 µM | > 100 µM |  |
| CCOC(=O)c1[nH]cc(C)c1-c1ccn(-c2ccccc2)c1 | > 100 µM | > 100 µM | 65.2 µM | > 100 µM | > 100 µM | > 100 µM | > 100 µM | > 100 µM | > 100 µM |  |
| C/C(=C\c1ccccc1)C(=O)CCN1CCOCC1 | > 100 µM |  | > 62.3 µM | 34.2 µM | 33.4 µM | > 100 µM | 35.4 µM | > 100 µM | 34.4 µM | 33 µM |
| COCOc1ccc(OC)cc1 | > 100 µM |  | > 100 µM | > 100 µM | > 100 µM | > 100 µM | > 100 µM | > 100 µM | > 100 µM | > 100 µM |
| C1CCSCCCCSCCCCSCCCCSC1 | > 100 µM | > 100 µM |  | > 100 µM | > 100 µM | > 100 µM | > 100 µM | > 100 µM | > 100 µM |  |
| CC(=O)OC[C@]1(C(=O)C(O)c2ccoc2)[C@H](C)CC[C@@]23COC(=O)C2=CCC[C@@H]31 (some centres not stated) | > 10 µM | > 10 µM | > 10 µM | > 10 µM | > 10 µM | > 10 µM |  | > 10 µM | > 10 µM |  |
| CCC[C@H]1C(=O)N=C(N)N1C(=O)OCc1ccccc1 | > 100 µM |  | > 100 µM | > 100 µM | > 100 µM | > 100 µM | > 100 µM |  | > 100 µM | > 100 µM |
| CSCCC(NCc1c(O)ccc2c(-c3ccccc3)cc(=O)oc12)C(=O)O (configuration not stated) |  | > 100 µM | > 100 µM | > 100 µM | > 100 µM | > 100 µM | > 100 µM | > 100 µM | > 100 µM | > 100 µM |
| CCSC1=CC(=O)c2nc3ccccc3c3ccnc1c23 |  | 6.15 µM | 15.3 µM | > 23.1 µM | 15 µM | 31 µM | 25.3 µM | 22.9 µM | 25 µM | 3.32 µM |
| COc1ccc(N[C@H](CSc2ccc(C)cc2)c2ccc(F)cc2)cc1 |  | > 100 µM | > 100 µM | > 100 µM | > 100 µM | > 100 µM | > 100 µM | > 100 µM | > 100 µM |  |
